Source: the Kinase Knowledgebase extract (Sharma et al. 2016)

Key:
Assay in all cases: Enzyme Assay
PIK3CB (Human) = PIK3CB (Human) (UniProt P42338)
PIK3CA (human) = PIK3CA (human) (UniProt P42336)
PIK3CD (Human) = PIK3CD (Human) (UniProt O00329)
PIK3CG (human) = PIK3CG (human) (UniProt P48736)
Sequence of PIK3CG (human) (P48736 whole entry, looked up): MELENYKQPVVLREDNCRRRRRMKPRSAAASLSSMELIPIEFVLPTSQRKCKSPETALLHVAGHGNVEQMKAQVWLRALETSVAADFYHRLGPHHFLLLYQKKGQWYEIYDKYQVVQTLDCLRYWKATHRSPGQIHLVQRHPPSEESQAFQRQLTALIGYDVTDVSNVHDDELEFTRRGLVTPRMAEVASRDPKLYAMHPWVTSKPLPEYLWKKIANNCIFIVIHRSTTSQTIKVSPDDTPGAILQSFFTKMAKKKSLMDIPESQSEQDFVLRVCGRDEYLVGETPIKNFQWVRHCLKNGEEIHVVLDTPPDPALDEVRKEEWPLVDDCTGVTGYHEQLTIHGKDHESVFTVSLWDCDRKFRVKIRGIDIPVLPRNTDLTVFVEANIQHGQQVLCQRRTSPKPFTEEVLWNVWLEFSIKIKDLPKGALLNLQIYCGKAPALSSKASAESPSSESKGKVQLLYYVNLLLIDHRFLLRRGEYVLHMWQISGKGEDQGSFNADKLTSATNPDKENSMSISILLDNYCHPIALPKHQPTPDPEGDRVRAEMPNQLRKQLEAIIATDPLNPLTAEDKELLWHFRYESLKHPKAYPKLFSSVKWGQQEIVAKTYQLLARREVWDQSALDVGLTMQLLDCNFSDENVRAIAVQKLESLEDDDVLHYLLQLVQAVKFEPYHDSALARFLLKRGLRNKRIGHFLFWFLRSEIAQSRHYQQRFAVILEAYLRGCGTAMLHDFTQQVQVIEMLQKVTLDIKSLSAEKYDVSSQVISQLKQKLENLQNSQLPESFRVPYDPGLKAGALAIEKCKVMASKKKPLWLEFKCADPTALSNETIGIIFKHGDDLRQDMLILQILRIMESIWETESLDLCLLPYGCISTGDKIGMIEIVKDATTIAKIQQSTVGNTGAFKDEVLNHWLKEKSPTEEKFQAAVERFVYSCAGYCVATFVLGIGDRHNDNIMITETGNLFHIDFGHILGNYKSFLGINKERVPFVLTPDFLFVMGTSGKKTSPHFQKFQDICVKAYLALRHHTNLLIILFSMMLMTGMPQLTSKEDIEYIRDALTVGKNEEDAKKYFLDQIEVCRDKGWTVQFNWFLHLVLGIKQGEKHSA

Sequence of PIK3CA (human) (P42336 whole entry, looked up): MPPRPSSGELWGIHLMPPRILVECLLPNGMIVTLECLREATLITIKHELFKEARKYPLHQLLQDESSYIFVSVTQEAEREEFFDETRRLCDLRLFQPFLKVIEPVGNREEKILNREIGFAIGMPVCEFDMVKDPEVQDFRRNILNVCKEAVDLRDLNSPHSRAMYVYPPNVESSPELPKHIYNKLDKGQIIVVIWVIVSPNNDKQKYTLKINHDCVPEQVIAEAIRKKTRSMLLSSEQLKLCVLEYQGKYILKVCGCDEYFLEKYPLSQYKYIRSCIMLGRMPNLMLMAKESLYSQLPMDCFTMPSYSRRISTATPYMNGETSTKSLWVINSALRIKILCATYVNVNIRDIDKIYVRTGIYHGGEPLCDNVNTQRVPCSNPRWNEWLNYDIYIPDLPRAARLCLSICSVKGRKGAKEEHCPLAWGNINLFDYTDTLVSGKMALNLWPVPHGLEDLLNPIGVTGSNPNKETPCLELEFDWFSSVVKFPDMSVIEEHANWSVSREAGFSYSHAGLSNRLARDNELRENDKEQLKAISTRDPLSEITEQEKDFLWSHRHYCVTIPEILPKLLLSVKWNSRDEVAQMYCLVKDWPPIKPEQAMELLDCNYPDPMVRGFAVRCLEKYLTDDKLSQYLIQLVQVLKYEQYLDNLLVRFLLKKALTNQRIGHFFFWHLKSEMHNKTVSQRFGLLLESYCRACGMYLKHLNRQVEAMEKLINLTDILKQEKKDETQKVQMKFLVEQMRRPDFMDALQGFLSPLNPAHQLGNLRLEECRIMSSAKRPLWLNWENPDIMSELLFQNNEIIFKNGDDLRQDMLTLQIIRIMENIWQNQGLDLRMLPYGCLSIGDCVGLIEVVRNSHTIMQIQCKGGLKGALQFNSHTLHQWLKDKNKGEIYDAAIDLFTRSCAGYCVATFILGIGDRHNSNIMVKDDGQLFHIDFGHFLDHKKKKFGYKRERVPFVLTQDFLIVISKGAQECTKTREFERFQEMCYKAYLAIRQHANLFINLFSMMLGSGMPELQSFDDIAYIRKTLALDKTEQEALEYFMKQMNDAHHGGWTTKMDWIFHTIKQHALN
Sequence of PIK3CD (Human) (O00329 whole entry, looked up): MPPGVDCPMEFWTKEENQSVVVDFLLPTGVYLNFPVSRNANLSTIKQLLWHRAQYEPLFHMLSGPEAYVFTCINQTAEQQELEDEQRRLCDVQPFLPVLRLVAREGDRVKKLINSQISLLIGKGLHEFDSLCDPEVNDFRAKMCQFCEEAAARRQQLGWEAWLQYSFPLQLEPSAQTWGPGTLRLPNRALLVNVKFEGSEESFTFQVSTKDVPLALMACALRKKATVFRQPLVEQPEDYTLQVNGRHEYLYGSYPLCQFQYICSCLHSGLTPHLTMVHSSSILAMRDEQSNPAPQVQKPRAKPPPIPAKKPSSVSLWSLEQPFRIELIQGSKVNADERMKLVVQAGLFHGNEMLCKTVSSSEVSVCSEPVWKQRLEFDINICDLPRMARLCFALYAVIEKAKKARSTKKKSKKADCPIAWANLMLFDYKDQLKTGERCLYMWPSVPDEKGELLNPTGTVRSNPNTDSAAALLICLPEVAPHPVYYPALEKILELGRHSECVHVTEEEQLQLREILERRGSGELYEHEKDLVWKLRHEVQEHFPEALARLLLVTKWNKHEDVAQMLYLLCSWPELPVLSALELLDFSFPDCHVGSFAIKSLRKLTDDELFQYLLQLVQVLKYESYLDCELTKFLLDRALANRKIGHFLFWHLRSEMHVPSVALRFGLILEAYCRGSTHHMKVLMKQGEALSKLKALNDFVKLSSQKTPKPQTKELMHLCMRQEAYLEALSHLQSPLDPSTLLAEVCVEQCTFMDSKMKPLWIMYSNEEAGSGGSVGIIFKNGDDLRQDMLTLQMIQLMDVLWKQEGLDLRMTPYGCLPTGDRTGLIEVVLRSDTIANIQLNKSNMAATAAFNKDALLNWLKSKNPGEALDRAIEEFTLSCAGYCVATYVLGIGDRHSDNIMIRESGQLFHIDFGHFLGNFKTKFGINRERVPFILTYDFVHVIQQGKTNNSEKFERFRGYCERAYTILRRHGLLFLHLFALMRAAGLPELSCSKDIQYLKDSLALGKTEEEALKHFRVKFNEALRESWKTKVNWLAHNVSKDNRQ
Sequence of PIK3CB (Human) (P42338 whole entry, looked up): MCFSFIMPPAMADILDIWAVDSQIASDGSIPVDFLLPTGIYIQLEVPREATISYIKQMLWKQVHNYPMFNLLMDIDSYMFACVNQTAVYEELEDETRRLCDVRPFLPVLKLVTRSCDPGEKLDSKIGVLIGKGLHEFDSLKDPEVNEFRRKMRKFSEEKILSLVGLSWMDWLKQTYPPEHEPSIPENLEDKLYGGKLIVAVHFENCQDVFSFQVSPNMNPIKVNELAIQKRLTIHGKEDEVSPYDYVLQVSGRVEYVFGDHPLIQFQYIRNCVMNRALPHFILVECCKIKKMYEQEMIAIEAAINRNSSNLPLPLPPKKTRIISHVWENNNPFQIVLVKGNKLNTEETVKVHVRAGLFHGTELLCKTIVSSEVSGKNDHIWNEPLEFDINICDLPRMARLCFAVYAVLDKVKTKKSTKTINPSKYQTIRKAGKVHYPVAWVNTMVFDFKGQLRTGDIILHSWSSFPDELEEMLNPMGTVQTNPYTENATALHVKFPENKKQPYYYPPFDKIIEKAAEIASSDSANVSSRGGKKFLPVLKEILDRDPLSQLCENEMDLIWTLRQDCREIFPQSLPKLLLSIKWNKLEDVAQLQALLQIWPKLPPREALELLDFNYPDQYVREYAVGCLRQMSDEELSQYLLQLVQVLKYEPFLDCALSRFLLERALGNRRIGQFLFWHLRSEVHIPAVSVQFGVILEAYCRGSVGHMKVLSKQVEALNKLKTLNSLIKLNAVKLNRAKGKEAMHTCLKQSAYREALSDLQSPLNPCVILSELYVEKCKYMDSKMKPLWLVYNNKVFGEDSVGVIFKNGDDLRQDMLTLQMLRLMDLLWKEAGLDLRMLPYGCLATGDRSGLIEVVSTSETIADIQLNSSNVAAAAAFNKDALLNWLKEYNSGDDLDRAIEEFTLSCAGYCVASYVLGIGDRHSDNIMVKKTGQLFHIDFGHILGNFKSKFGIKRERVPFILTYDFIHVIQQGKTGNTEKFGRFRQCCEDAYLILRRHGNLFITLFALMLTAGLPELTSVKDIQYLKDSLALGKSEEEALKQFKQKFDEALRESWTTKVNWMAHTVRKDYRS

| Compound | IC50 (PIK3CB (Human)) [nM] | IC50 (PIK3CA (human)) [nM] | IC50 (PIK3CD (Human)) [nM] | IC50 (PIK3CG (human)) [nM] |
| --- | --- | --- | --- | --- |
| Cc1nc2c(N[C@@H](C)c3cc4cccc(-c5cnn(C)c5)c4c(=O)n3-c3ccccc3)ncnc2s1 | > 10000 | > 10000 |  |  |
| Cc1sc2ncnc(N[C@@H](C)c3cc4cccc(Cl)c4c(=O)n3-c3ccccc3)c2c1C | > 10000 | > 10000 | < 100 |  |
| Cc1cccc2cc([C@H](C)Nc3ncnc4scnc34)n(-c3cccc(F)c3)c(=O)c12 | 100 to 1000 |  | < 100 | < 100 |
| C[C@H](Nc1ncnc2scnc12)c1cc2cccc(-c3cnc4[nH]ccc4c3)c2c(=O)n1-c1ccccc1 | 100 to 1000 | 100 to 1000 | < 100 | < 100 |
| C[C@H](Nc1nc(N)nc2scnc12)c1cc2cccc(-c3cnn(C)c3)c2c(=O)n1-c1ccccc1 | 100 to 1000 | 100 to 1000 | < 100 | < 100 |
| C[C@H](Nc1ncnc2scnc12)c1cc2cccc(-c3cnn(C)c3)c2c(=O)n1C1CC1 | 100 to 1000 | 100 to 1000 | < 100 | < 100 |
| C[C@H](Nc1ncnc2scnc12)c1cc2cccc(Cl)c2c(=O)n1CCN1CCCC1 | 100 to 1000 | > 10000 | < 100 | > 10000 |
| C[C@H](Nc1ncnc2scnc12)c1cc2cccc(-c3ccc(F)c(F)c3)c2c(=O)n1-c1ccccc1 | > 10000 |  | < 100 | < 100 |
| C[C@H](Nc1ncnc2scnc12)c1cc2cccc(Cl)c2c(=O)n1-c1cccc(F)c1 | < 100 | 100 to 1000 | < 100 | < 100 |
| C[C@H](Nc1ncnc2scnc12)c1cc2scc(-c3cnn(C)c3)c2c(=O)n1-c1ccccc1 | > 10000 |  | 100 to 1000 | 100 to 1000 |
| C[C@H](Nc1ncnc2scnc12)c1cc2cccc(-c3ccc(N)nc3)c2c(=O)n1C1CC1 | 100 to 1000 | 100 to 1000 | < 100 | < 100 |
| C[C@H](Nc1ncnc2scnc12)c1cc2cccc(C(=O)O)c2c(=O)n1-c1ccccc1 | > 10000 | > 10000 |  |  |
| C[C@H](Nc1ncnc2scnc12)c1cc2cccc(-c3cnn(CCN4CCOCC4)c3)c2c(=O)n1-c1ccccc1 | > 10000 |  | < 100 | < 100 |
| C[C@H](Nc1ncnc2scnc12)c1cc2cccc(-c3ccc(N(C)C)nc3)c2c(=O)n1-c1ccccc1 | > 10000 |  | < 100 | < 100 |
| C[C@H](Nc1ncnc2scnc12)c1cc2cccc(-c3ccccn3)c2c(=O)n1-c1ccccc1 | > 10000 | > 10000 | < 100 | 100 to 1000 |
| C[C@H](Nc1ncnc2scnc12)c1cc2cccc(-c3cn(C)cn3)c2c(=O)n1-c1ccccc1 | > 10000 | > 10000 | 100 to 1000 | > 10000 |
| COc1ncc(-c2cccc3cc([C@H](C)Nc4ccnc5scnc45)n(-c4ccccc4)c(=O)c23)cn1 | > 10000 |  | < 100 | 100 to 1000 |
| C[C@H](Nc1ccnc2scnc12)c1cc2cccc(Cl)c2c(=O)n1-c1ccccc1 | 100 to 1000 | 100 to 1000 | < 100 | < 100 |
| CC(C)Cn1cc(-c2cccc3cc([C@H](C)Nc4ncnc5scnc45)n(-c4ccccc4)c(=O)c23)cn1 | > 10000 |  | < 100 | 100 to 1000 |
| C[C@H](Nc1ncnc2scnc12)c1cc2cccc(C(=O)N(C)C)c2c(=O)n1-c1ccccc1 | > 10000 | > 10000 | 100 to 1000 | > 10000 |
| C[C@H](Nc1ncnc2scnc12)c1cc2cccc(C(=O)N3CCOCC3)c2c(=O)n1-c1ccccc1 | > 10000 | > 10000 | 100 to 1000 |  |
| C[C@H](Nc1ncnc2scnc12)c1cc2cccc(-c3ccnnc3)c2c(=O)n1-c1ccccc1 | > 10000 |  | < 100 | < 100 |
| C[C@H](Nc1ncnc2scnc12)c1cc2cccc(Cl)c2c(=O)n1C | < 100 |  | < 100 | < 100 |

| Compound | IC50 (PIK3CB (Human)) [nM] | IC50 (PIK3CA (human)) [nM] | IC50 (PIK3CD (Human)) [nM] | IC50 (PIK3CG (human)) [nM] |
| --- | --- | --- | --- | --- |
| C[C@H](Nc1ncnc2scnc12)c1cc2cccc(-c3ccc(C(F)(F)F)nc3)c2c(=O)n1-c1ccccc1 | > 10000 | > 10000 | < 100 | 100 to 1000 |
| CC(C)n1cc(-c2cccc3cc([C@H](C)Nc4ncnc5scnc45)n(-c4ccccc4)c(=O)c23)cn1 | > 10000 |  | < 100 | 100 to 1000 |
| Cc1ncc(-c2cccc3cc([C@H](C)Nc4ncnc5scnc45)n(-c4ccccc4)c(=O)c23)cn1 | > 10000 |  | < 100 | 100 to 1000 |
| C[C@H](Nc1ccnc2scnc12)c1cc2cccc(Cl)c2c(=O)n1-c1cccc(F)c1 | 100 to 1000 |  | < 100 | < 100 |
| C[C@H](Nc1ncnc2scnc12)c1cc2cccc(Cl)c2c(=O)n1-c1ccccc1 | < 100 | 100 to 1000 | < 100 | < 100 |
| C[C@H](Nc1ncnc2scnc12)c1cc2cccc(-c3cnc4nccnc4c3)c2c(=O)n1-c1ccccc1 | > 10000 | > 10000 | < 100 | 100 to 1000 |
| C[C@H](Nc1ncnc2scnc12)c1cc2scc(Cl)c2c(=O)n1-c1ccccc1 | < 100 |  | < 100 | < 100 |
| C[C@H](Nc1ncnc2scnc12)c1cc2cccc(Cl)c2c(=O)n1C1CC1 | < 100 | 100 to 1000 | < 100 | < 100 |
| C[C@H](Nc1ncnc2scnc12)c1cc2cccc(-c3cnc4c(c3)CCCC4)c2c(=O)n1-c1ccccc1 | > 10000 | > 10000 |  |  |
| COc1ncc(-c2cccc3cc([C@H](C)Nc4ncnc5scnc45)n(-c4cccc(F)c4)c(=O)c23)cn1 | > 10000 |  | < 100 | 100 to 1000 |
| CNC(=O)c1cccc2cc([C@H](C)Nc3ncnc4scnc34)n(-c3ccccc3)c(=O)c12 | > 10000 | > 10000 | 100 to 1000 | > 10000 |
| Cc1nc2c(N[C@@H](C)c3cc4cccc(Cl)c4c(=O)n3-c3ccccc3)ncnc2s1 | > 10000 | > 10000 | > 10000 | > 10000 |
| C[C@H](Nc1ncnc2scc(-c3ccccc3)c12)c1cc2cccc(Cl)c2c(=O)n1-c1ccccc1 | > 10000 | > 10000 | 100 to 1000 |  |
| Cc1cncc(-c2cccc3cc([C@H](C)Nc4ncnc5scnc45)n(-c4ccccc4)c(=O)c23)c1 |  | 100 to 1000 | < 100 | < 100 |
| C[C@H](Nc1ncnc2scnc12)c1cc2cccc(-c3cnc4ccccc4c3)c2c(=O)n1-c1ccccc1 | 100 to 1000 | 100 to 1000 | < 100 | < 100 |
| C[C@H](Nc1ncnc2scnc12)c1cc2cccc(-c3cncc(F)c3)c2c(=O)n1-c1ccccc1 | > 10000 |  | < 100 | < 100 |
| C[C@H](Nc1ncnc2scnc12)c1cc2cccc(-c3cccc(N(C)C)c3)c2c(=O)n1-c1ccccc1 |  | 100 to 1000 | < 100 | < 100 |
| Cc1nc2c(N[C@@H](C)c3cc4cccc(Cl)c4c(=O)n3-c3cccc(F)c3)ncnc2s1 | > 10000 | > 10000 |  | > 10000 |
| COc1cncc(-c2cccc3cc([C@H](C)Nc4ncnc5scnc45)n(C4CC4)c(=O)c23)c1 | 100 to 1000 | 100 to 1000 | < 100 | 100 to 1000 |
| COc1cncc(-c2cccc3cc([C@H](C)Nc4ncnc5scnc45)n(-c4ccccc4)c(=O)c23)c1 | 100 to 1000 | < 100 | < 100 | < 100 |
| Cc1nn(C)cc1-c1cccc2cc([C@H](C)Nc3ncnc4scnc34)n(-c3ccccc3)c(=O)c12 |  | 100 to 1000 | < 100 | < 100 |
| C[C@H](Nc1ncnc2scnc12)c1cc2cccc(C=O)c2c(=O)n1-c1ccccc1 | 100 to 1000 |  | < 100 | < 100 |
